Measured values as given in paper PMC10066365, “Nemacol is a small molecule inhibitor of C. elegans vesicular acetylcholine transporter with anthelmintic potential” (Nature Communications, 2023).
Values joined by “and” are separate entries in the source; they are usually repeats but may differ in a detail not shown here. Equal entries are not always repeated.

What was measured:
Pristionchus pacificus = Pristionchus pacificus motor disruption dose-response on solid media, 1 h; conditions: for mean % any phene (coiled, jerky-Unc or paralyzed): Pristionchus pacificus young adults, mean of three biological replicates; for EC50: Pristionchus pacificus, 1 h, read-out: P. pacificus motor disruption EC50
[1] = test system: Dirofilaria immitis L3/L4; assay: Dirofilaria immitis L3/L4 motility assay (DiroImager, 72 h); conditions: Dirofilaria immitis L4
[2] = test system: Dirofilaria immitis microfilariae; assay: Dirofilaria immitis microfilariae immobility assay (DiroImager, 72 h); conditions: Dirofilaria immitis microfilariae
Method in brief: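 Motility read after 72 h drug exposure with an image-based high-throughput plate imager, 1% DMSO medium serving as negative control. Missouri-isolate microfilariae, roughly 250 per well, freshly purified and cultured in supplemented RPMI 1640.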

C. elegans = C. elegans motor phenotype scoring on solid media (Punc/jerky-unc, coiled, paralyzed), wild-type young adults; type: in vivo, Caenorhabditis elegans; conditions: for any phene (mean % fraction of young adults exhibiting any phenotype: coiled, jerky-Unc or paralyzed) / any phene, mean % fraction of young adults exhibiting any phenotype (coiled, jerky-Unc or paralyzed) / atypical locomotion (number of animals) / coiled (number of animals) / no phene (number of animals) / paralyzed (number of animals): one hour; for any phene (mean % fraction of young adults exhibiting any phenotype: coiled, jerky-Unc or paralyzed) / any phene, mean % fraction of young adults exhibiting any phenotype (coiled, jerky-Unc or paralyzed): mean of three biological replicates; for EC50: Caenorhabditis elegans, any motor phenotype after 1 h on solid media, ± 95% CI, read-out: C. elegans - motor disruption EC50; for atypical locomotion (number of animals) / coiled (number of animals) / no phene (number of animals) / paralyzed (number of animals): young adults, 20 animals per trial, single replicate counts
[3] = conc 3.75, observed at one hour

For `N#Cc1ccc(N2CCN(CC3CCCC3)CC2)cc1` [Nemacol-27, 4-(4-(cyclopentylmethyl)piperazin-1-yl)benzonitrile], which “mean % any phene (coiled, jerky-Unc or paralyzed)” value (from here on “mean % any phene”) (Pristionchus pacificus; [3]) is on record?
Its value is 9.167% and 5%.

And the “mean % any phene” value (Pristionchus pacificus; conc 15, observed at one hour)?
Its value is 46.6667% and 3.333%.

And the “mean % any phene” value (Pristionchus pacificus; conc 60, observed at one hour)?
Its value is 88.3333%.

And the EC50 (Pristionchus pacificus)?
The EC50 was 16.4 ± 3.6 µM.

And the “% effect (motility), DIROIM L4” value ([1]; 2 µM)?
The value was 0%.

And the “% effect (motility), DIROIM L4” value ([1]; 10 µM)?
The value was 10%.

What about the “% effect (motility), DIROIM L4” value ([1]; 50 µM) of the same compound?
The value was 15%.

What about the “% effect (motility), DIROIM MF” value ([2]; 0.016 µM) of the same compound?
The value was 0%.

And the “% effect (motility), DIROIM MF” value ([2]; 0.08 µM)?
The value was 0%.

What about the “% effect (motility), DIROIM MF” value ([2]; 0.4 µM) of the same compound?
Its value is 0%.

What about the “% effect (motility), DIROIM MF” value ([2]; 2 µM) of the same compound?
The value was 0%.

What about the “% effect (motility), DIROIM MF” value ([2]; 10 µM) of the same compound?
Its value is 0%.

What about the “any phene (mean % fraction of young adults exhibiting any phenotype: coiled, jerky-Unc or paralyzed)” value (C. elegans; 3.75uM, third c14 line of each analog) of the same compound?
Its value is 0.8333%.

And the “any phene (mean % fraction of young adults exhibiting any phenotype: coiled, jerky-Unc or paralyzed)” value (C. elegans; 15uM, second c14 line of each analog)?
The value was 29.1667%.

What about the “any phene (mean % fraction of young adults exhibiting any phenotype: coiled, jerky-Unc or paralyzed)” value (C. elegans; 60uM, first c14 line of each analog) of the same compound?
Its value is 91.3333%.

And the EC50 (C. elegans)?
The EC50 was 21.9 ± 8.2 µM.

`O=C(C1CCCCC1)N1CCN(c2ccc([N+](=O)[O-])cc2)CC1` [Nemacol-16] was tested. Which “mean % any phene” value (Pristionchus pacificus; [3]) did it give?
The value was 0% and 3.333%.

What about the “mean % any phene” value (Pristionchus pacificus; conc 15, observed at one hour) of the same compound?
The value was 8.333% and 5%.

And the “mean % any phene” value (Pristionchus pacificus; conc 60, observed at one hour)?
Its value is 36.6667%.

And the EC50 (Pristionchus pacificus)?
Its EC50 is > 60 µM.

What about the “% effect (motility), DIROIM L4” value ([1]; 2 µM) of the same compound?
Its value is 0%.

And the “% effect (motility), DIROIM L4” value ([1]; 10 µM)?
The value was 10%.

And the “% effect (motility), DIROIM L4” value ([1]; 50 µM)?
The value was 35%.

What about the “% effect (motility), DIROIM MF” value ([2]; 0.016 µM) of the same compound?
Its value is 0%.

And the “% effect (motility), DIROIM MF” value ([2]; 0.08 µM)?
Its value is 0%.

And the “% effect (motility), DIROIM MF” value ([2]; 0.4 µM)?
Its value is 0%.

What about the “% effect (motility), DIROIM MF” value ([2]; 2 µM) of the same compound?
The value was 0%.

And the “% effect (motility), DIROIM MF” value ([2]; 10 µM)?
Its value is 40%.

And the “any phene, mean % fraction of young adults exhibiting any phenotype (coiled, jerky-Unc or paralyzed)” value (“any phene, mean % fraction” for short) (C. elegans; 3.75uM)?
The value was 0.8333%.

And the “atypical locomotion (number of animals)” value (C. elegans; 3.75uM)?
Its value is 0 and 1.

And the “coiled (number of animals)” value (C. elegans; 3.75uM)?
The value was 0.

What about the “no phene (number of animals)” value (C. elegans; 3.75uM) of the same compound?
Its value is 20 and 19.

And the “paralyzed (number of animals)” value (C. elegans; 3.75uM)?
The value was 0.

What about the “any phene, mean % fraction” value (C. elegans; 15uM) of the same compound?
Its value is 0.8333%.

What about the “atypical locomotion (number of animals)” value (C. elegans; 15uM) of the same compound?
Its value is 0.

What about the “coiled (number of animals)” value (C. elegans; 15uM) of the same compound?
Its value is 0.

And the “no phene (number of animals)” value (C. elegans; 15uM)?
Its value is 20 and 19.

What about the “paralyzed (number of animals)” value (C. elegans; 15uM) of the same compound?
Its value is 0 and 1.

What about the “any phene, mean % fraction” value (C. elegans; 60uM) of the same compound?
Its value is 4.167%.

What about the “atypical locomotion (number of animals)” value (C. elegans; 60uM) of the same compound?
The value was 4 and 1 and 0.

What about the “coiled (number of animals)” value (C. elegans; 60uM) of the same compound?
The value was 0.

What about the “no phene (number of animals)” value (C. elegans; 60uM) of the same compound?
The value was 16 and 19 and 20.

What about the “paralyzed (number of animals)” value (C. elegans; 60uM) of the same compound?
Its value is 0.

What about the EC50 (C. elegans) of the same compound?
Its EC50 is > 60 µM.

How did the EC50 (Pristionchus pacificus) turn out when `O=[N+]([O-])c1ccc(CN2CCN(C3CCCC3)CC2)cc1` [Nemacol-15] was run?
Its EC50 is > 60 µM.

And the “% effect (motility), DIROIM L4” value ([1]; 2 µM)?
Its value is 5%.

What about the “% effect (motility), DIROIM L4” value ([1]; 10 µM) of the same compound?
The value was 0%.

And the “% effect (motility), DIROIM L4” value ([1]; 50 µM)?
The value was 10%.

What about the “% effect (motility), DIROIM MF” value ([2]; 0.016 µM) of the same compound?
Its value is 0%.

And the “% effect (motility), DIROIM MF” value ([2]; 0.08 µM)?
Its value is 0%.

What about the “% effect (motility), DIROIM MF” value ([2]; 0.4 µM) of the same compound?
The value was 0%.

And the “% effect (motility), DIROIM MF” value ([2]; 2 µM)?
The value was 0%.

What about the “% effect (motility), DIROIM MF” value ([2]; 10 µM) of the same compound?
The value was 0%.

What about the “any phene, mean % fraction” value (C. elegans; 3.75uM) of the same compound?
Its value is 0%.

What about the “atypical locomotion (number of animals)” value (C. elegans; 3.75uM) of the same compound?
Its value is 0.

And the “coiled (number of animals)” value (C. elegans; 3.75uM)?
Its value is 0.

What about the “no phene (number of animals)” value (C. elegans; 3.75uM) of the same compound?
Its value is 20.

And the “paralyzed (number of animals)” value (C. elegans; 3.75uM)?
Its value is 0.

And the “any phene, mean % fraction” value (C. elegans; 15uM)?
Its value is 2.5%.

And the “atypical locomotion (number of animals)” value (C. elegans; 15uM)?
Its value is 0 and 1 and 2.

What about the “coiled (number of animals)” value (C. elegans; 15uM) of the same compound?
Its value is 0.

What about the “no phene (number of animals)” value (C. elegans; 15uM) of the same compound?
The value was 20 and 19 and 18.

What about the “paralyzed (number of animals)” value (C. elegans; 15uM) of the same compound?
The value was 0.

And the “any phene, mean % fraction” value (C. elegans; 60uM)?
The value was 23.3333%.

And the “atypical locomotion (number of animals)” value (C. elegans; 60uM)?
Its value is 2 and 1 and 4 and 5 and 9.

What about the “coiled (number of animals)” value (C. elegans; 60uM) of the same compound?
Its value is 0.

What about the “no phene (number of animals)” value (C. elegans; 60uM) of the same compound?
Its value is 18 and 19 and 15 and 14 and 11.

What about the “paralyzed (number of animals)” value (C. elegans; 60uM) of the same compound?
The value was 0 and 3 and 2.

What about the EC50 (C. elegans) of the same compound?
The EC50 was > 60 µM.
